Values joined by “and” are separate entries in the source; they are usually repeats but may differ in a detail not shown here. Equal entries are not always repeated. “Also recorded” adds a separate entry of the source.
How the values were obtained:
[1] = system: C57BL/6J mice subjected to ICH; test: Brain water content (edema) after ICH; format: in vivo; conditions: for brain water content versus vehicle: 1 mg/kg i.p. first at 6 h and 12 h after ICH
Protocol: (§1) Animal Preparation and Intracerebral Infusion. Adult male C57BL/6J mice weighing 23-30 g were used. Mice were randomized to receive intraperitoneal injection of either C3aRA (1 mg/kg) (SB290157, Calbiochem, Darmstadt, Germany) diluted in PBS and DMSO (1.16% v/v), or an equal volume of vehicle (PBS and DMSO, 1.16% DMSO v/v) either 45 minutes prior to ICH induction or 6 and 12 hours after induction of ICH, followed in both cohorts by twice daily doses for 72 hours. […] Sham animals were given PBS and DMSO (1.16% v/v) in the same manner.
Mice were anesthetized with a single intraperitoneal dose of ketamine (90 mg/kg) and xylazine (5 mg/kg). Next, the mice were placed in a stereotactic frame (ASI Instruments, Inc., Warren, Mich., USA) and subjected to ICH using autologous blood infusion as previously described (Rynkowski M A et al, 2008, Nat Protoc 3: 122-128), Briefly, a 1-mm burr hole was drilled 2.3 mm lateral to the midline and 0.2 mm anterior to the bregma. Thirty μL of autologous whole blood were drawn from the tail artery into a capillary tube. A 30-gauge needle was then advanced stereotactically through the burr hole into the right striatum (coordinates: 0.2 mm anterior, 2.3 mm lateral to the bregma, 3.5 mm ventral). Using a microinfusion pump (KDS220, KD Scientific Inc., Holliston, Mass., USA), 5 μL was delivered at a rate of 1.5 μL per minute. After a 7-minute period, an additional 25 μL was delivered at a constant rate of 1.5 μL per minute. After a period of 10 minutes, the needle was slowly removed, the burr hole was occluded with bone wax and the skin incision was closed with Nexaband® (Abbott Laboratories, North Chicago, Ill.). Sham animals received only needle insertion. Rectal temperature was maintained at 37.0° C. using a feedback-controlled heating lamp, and the animals recovered in a temperature-controlled incubator for 45 minutes post-procedure.
Determination of brain water content. Mice were reanesthetized with Ketamine (80-100 mg/kg i.p.), Xylazine (5-10 mg/kg i.p.) and sacrificed 3 days post-hemorrhage to determine brain water content (sham vehicle n=8 Pre-C3aRA n=8, Post-C3aRA n=11). Brains were removed immediately en bloc and five 2-mm coronal slices were obtained beginning 2-mm from the frontal pole. The brain slices were divided into two hemispheres along the midline. The cortex of each hemisphere was then carefully dissected from the basal ganglia. The cerebellum was retained as a control. Each of the five sections was then weighed on an electronic analytical balance (Model AG 104, Mettler-Toledo, Inc., Columbus, Ohio, USA) to determine the wet weight. The sections were then placed onto pre-weighed cover slips and dried overnight in a vacuum oven for 24 hours to obtain the dry weight. Brain water content (%) was calculated as: ((wet weight-dry weight)/wet weight)×100.
Animal Preparation and Intracerebral Infusion. Adult male C57BL/6J mice weighing 23-30 g were randomized to receive intraperitoneal injection of either C3aRA (1 mg/kg) (SB290157, Calbiochem, Darmstadt, Germany), C5aRA (1 mg/kg), combined C3aRA and C5aRA or an equal volume of DMSO. Each drug was diluted in PBS (1.16% v/v) and given 6 and 12 hours after ICH induction, followed by twice daily doses for 72 hours. The sham group of animals was given PBS and DMSO (1.16% v/v) in the same manner. Mice were anesthetized with a single intraperitoneal dose of ketamine (90 mg/kg) and xylazine (5 mg/kg). […]

[2] = system: C57BL/6J mice subjected to ICH; test: Corner turn test (laterality index) after ICH; format: in vivo; conditions: for corner turn test (laterality index): 1 mg/kg i.p. first at 6 h and 12 h after ICH, then twice daily for 72 hours, versus vehicle
Protocol: as §1
Mice were anesthetized with a single intraperitoneal dose of ketamine (90 mg/kg) and xylazine (5 mg/kg). Next, the mice were placed in a stereotactic frame (ASI Instruments, Inc., Warren, Mich., USA) and subjected to ICH using autologous blood infusion as previously described (Rynkowski M A et al, 2008, Nat Protoc 3: 122-128), Briefly, a 1-mm burr hole was drilled 2.3 mm lateral to the midline and 0.2 mm anterior to the bregma. Thirty μL of autologous whole blood were drawn from the tail artery into a capillary tube. A 30-gauge needle was then advanced stereotactically through the burr hole into the right striatum (coordinates: 0.2 mm anterior, 2.3 mm lateral to the bregma, 3.5 mm ventral). […]
Neurofunction and behavioral testing. Sensorimotor function was evaluated by means of the 28-point neurological function score, corner test and forelimb placing tests, which were performed pre-operatively and at 6, 24, 48 and 72 hour post-injury. Navigational memory was evaluated with the means of a Morris water-maze (MWM) test pre-operatively and at 72 hours post ICH. […]
Corner test. […] The number of right and left turns out of 10 total attempts was recorded. The laterality index (LI) and normalized LI were calculated. The laterality index (LI) was calculated for each mouse, according to the formula: LI=(Number of right turns—Number of left turns)/(Total number of turns). The LI for the day before surgery (LIBS) and each of the post surgery days was calculated and normalized using the formula: Normalized LI=(LI+2)/(LIBS+2). […]

[3] = 1 mg/kg i.p. 45 minutes prior to ICH, then twice daily, 72 hours after ICH, mean±SEM
[4] = then twice daily, 72 hours after ICH

| Molecule | brain water content, ipsilateral basal ganglia [1, 3] [%] | brain water content, ipsilateral cortex [1, 3] | brain water content versus vehicle [1, 4] | water content in the contralateral cortex, the basal ganglia and cerebellum ([1]; pre-ICH dosing 1 mg/kg i.p., 72 hours, versus vehicle-treated and sham) | corner test performance (normalized laterality index) ([2]; 1 mg/kg i.p. 45 minutes prior to ICH, then twice daily, 72 hours after ICH) | corner turn test (laterality index) [2] |
| --- | --- | --- | --- | --- | --- | --- |
| NC(N)=NCCC[C@H](NC(=O)COCC(c1ccccc1)c1ccccc1)C(=O)O [C3aRA] | 77.43±0.43 | 77.56±0.26% and 77.57±0.26% | mildly decreased brain water content; also recorded: Trend towards decreased edema | not different | no significant deficits compared with sham animals | significant improvement at 48 hours |
| Acetyl-Phe-[Orn-Pro-D-cyclohexylalanine-Trp-Arg] [C5aRA] |  |  | mildly decreased brain water content |  |  | significant improvement at 48 hours |

From patent US9180160B2, “Complement inhibitors for treatment of injury from intracerebral hemorrhage” (The Trustees of the University of Pennsylvania, priority 2008, dated 2015)
